Measurements as given in ChEMBL document CHEMBL3885881, “DrugMatrix”.

Organism: Rattus norvegicus
Assay: DrugMatrix - Regimen: Daily Repeat
Type: toxicity, organism-based, Sprague-Dawley
Design: regimen Daily Repeat, gender Male, age 6-8 weeks
Settings: in vivo, po, route oral GAVAGE, vehicle 100 % WATER; for ABSOLUTE LYMPHOCYTE / ABSOLUTE MONOCYTE / ABSOLUTE SEGMENTED NEUTROPHIL / BASOPHIL / EOSINOPHIL / ERYTHROCYTE COUNT / HEMATOCRIT / LEUKOCYTE COUNT / LYMPHOCYTE / MEAN CORPUSCULAR HEMOGLOBIN / MEAN CORPUSCULAR HEMOGLOBIN CONCENTRATION / MEAN CORPUSCULAR VOLUME / MONOCYTE / NEUTROPHIL / NUCLEATED RED BLOOD CELLS / PLATELET COUNT / ABSOLUTE BASOPHIL / ABSOLUTE EOSINOPHIL: tissue Blood; for ALANINE AMINOTRANSFERASE / ALBUMIN / ALKALINE PHOSPHATASE / ASPARTATE AMINOTRANSFERASE / BLOOD UREA NITROGEN / CARBON DIOXIDE / CHLORIDE / CHOLESTEROL / CREATINE PHOSPHOKINASE / CREATININE / GLUCOSE / LACTATE DEHYDROGENASE / LIPASE / PHOSPHORUS / POTASSIUM / SODIUM / TOTAL BILIRUBIN / TOTAL PROTEIN / URIC ACID: tissue Plasma
[1] = 850 mg/kg, 72 h, dose level M1, time 3 day
[2] = 850 mg/kg, 120 h, dose level M1, time 5 day
[3] = 1500 mg/kg, 72 h, dose level High, time 3 day
[4] = 1500 mg/kg, 120 h, dose level High, time 5 day

**Q.** Which results are given for `CCCC(CCC)C(=O)O` [VALPROIC ACID]?
**A.** ABSOLUTE LYMPHOCYTE [1]: 8722.33 CELLS/uL; ABSOLUTE MONOCYTE [1]: 267.67 CELLS/uL; ABSOLUTE SEGMENTED NEUTROPHIL [1]: 836 CELLS/uL; BASOPHIL [1]: 0%; EOSINOPHIL [1]: 0.33%; ERYTHROCYTE COUNT [1]: 5.4 x10E6/uL; HEMATOCRIT [1]: 35.27%; LEUKOCYTE COUNT [1]: 9.87 x10E3/uL; LYMPHOCYTE [1]: 89%; MEAN CORPUSCULAR HEMOGLOBIN [1]: 25.37 pg; MEAN CORPUSCULAR HEMOGLOBIN CONCENTRATION [1]: 38.73 G/DL; MEAN CORPUSCULAR VOLUME [1]: 65.5 fL; MONOCYTE [1]: 2.67%; NEUTROPHIL [1]: 8%; NUCLEATED RED BLOOD CELLS [1]: 0 /100WBC; PLATELET COUNT [1]: 1024 x10E3/uL; ALANINE AMINOTRANSFERASE [1]: 50 u/L; ALBUMIN [1]: 3.97 G/DL; ALKALINE PHOSPHATASE [1]: 196.67 u/L; ASPARTATE AMINOTRANSFERASE [1]: 87.67 u/L; BLOOD UREA NITROGEN [1]: 13 mg/dL; CARBON DIOXIDE [1]: 29 mmol/L; CHLORIDE [1]: 99.33 MEQ/L; CHOLESTEROL [1]: 57.67 mg/dL; CREATINE PHOSPHOKINASE [1]: 134.67 u/L; CREATININE [1]: 0.11 mg/dL; GLUCOSE [1]: 145.67 mg/dL; LACTATE DEHYDROGENASE [1]: 142.67 u/L; LIPASE [1]: 9.33 u/L; PHOSPHORUS [1]: 11.37 mg/dL; POTASSIUM [1]: 6.32 MEQ/L; SODIUM [1]: 143.5 MEQ/L; TOTAL BILIRUBIN [1]: 0.23 mg/dL; TOTAL PROTEIN [1]: 5.33 G/DL; URIC ACID [1]: 1.57 mg/dL; ABSOLUTE BASOPHIL [2]: 0 CELLS/uL; ABSOLUTE EOSINOPHIL [2]: 50 CELLS/uL; ABSOLUTE LYMPHOCYTE [2]: 6795.67 CELLS/uL; ABSOLUTE MONOCYTE [2]: 121.33 CELLS/uL; ABSOLUTE SEGMENTED NEUTROPHIL [2]: 433 CELLS/uL; BASOPHIL [2]: 0%; EOSINOPHIL [2]: 0.67%; ERYTHROCYTE COUNT [2]: 5.21 x10E6/uL; HEMATOCRIT [2]: 33.77%; LEUKOCYTE COUNT [2]: 7.4 x10E3/uL; LYMPHOCYTE [2]: 92%; MEAN CORPUSCULAR HEMOGLOBIN [2]: 24.63 pg; MEAN CORPUSCULAR HEMOGLOBIN CONCENTRATION [2]: 38 G/DL; MEAN CORPUSCULAR VOLUME [2]: 64.83 fL; MONOCYTE [2]: 1.67%; NEUTROPHIL [2]: 5.67%; NUCLEATED RED BLOOD CELLS [2]: 0 /100WBC; PLATELET COUNT [2]: 851.33 x10E3/uL; ALANINE AMINOTRANSFERASE [2]: 58.33 u/L; ALBUMIN [2]: 3.83 G/DL; ALKALINE PHOSPHATASE [2]: 272 u/L; ASPARTATE AMINOTRANSFERASE [2]: 99 u/L; BLOOD UREA NITROGEN [2]: 12.67 mg/dL; CARBON DIOXIDE [2]: 31.67 mmol/L; CHLORIDE [2]: 100 MEQ/L; CHOLESTEROL [2]: 60 mg/dL; CREATINE PHOSPHOKINASE [2]: 402 u/L; CREATININE [2]: 0.28 mg/dL; GLUCOSE [2]: 139.67 mg/dL; LACTATE DEHYDROGENASE [2]: 186.33 u/L; LIPASE [2]: 11 u/L; PHOSPHORUS [2]: 11.17 mg/dL; POTASSIUM [2]: 6.05 MEQ/L; SODIUM [2]: 143.73 MEQ/L; TOTAL BILIRUBIN [2]: 0.2 mg/dL; TOTAL PROTEIN [2]: 5.83 G/DL; URIC ACID [2]: 0.5 mg/dL; ABSOLUTE BASOPHIL [3]: 0 CELLS/uL; ABSOLUTE EOSINOPHIL [3]: 0 CELLS/uL; ABSOLUTE LYMPHOCYTE [3]: 4940.67 CELLS/uL; ABSOLUTE MONOCYTE [3]: 35.67 CELLS/uL; ABSOLUTE SEGMENTED NEUTROPHIL [3]: 257 CELLS/uL; BASOPHIL [3]: 0%; EOSINOPHIL [3]: 0%; ERYTHROCYTE COUNT [3]: 5.94 x10E6/uL; HEMATOCRIT [3]: 37.3%; LEUKOCYTE COUNT [3]: 5.23 x10E3/uL; LYMPHOCYTE [3]: 94.33%; MEAN CORPUSCULAR HEMOGLOBIN [3]: 23.37 pg; MEAN CORPUSCULAR HEMOGLOBIN CONCENTRATION [3]: 37.17 G/DL; MEAN CORPUSCULAR VOLUME [3]: 62.83 fL; MONOCYTE [3]: 0.67%; NEUTROPHIL [3]: 5%; NUCLEATED RED BLOOD CELLS [3]: 0 /100WBC; PLATELET COUNT [3]: 901.67 x10E3/uL; ALANINE AMINOTRANSFERASE [3]: 32.33 u/L; ALBUMIN [3]: 4.5 G/DL; ALKALINE PHOSPHATASE [3]: 225.67 u/L; ASPARTATE AMINOTRANSFERASE [3]: 77.67 u/L; BLOOD UREA NITROGEN [3]: 10.67 mg/dL; CARBON DIOXIDE [3]: 26 mmol/L; CHLORIDE [3]: 104 MEQ/L; CHOLESTEROL [3]: 42.67 mg/dL; CREATINE PHOSPHOKINASE [3]: 120 u/L; CREATININE [3]: 0.22 mg/dL; GLUCOSE [3]: 138 mg/dL; LACTATE DEHYDROGENASE [3]: 112 u/L; LIPASE [3]: 7.67 u/L; PHOSPHORUS [3]: 14.3 mg/dL; POTASSIUM [3]: 6.21 MEQ/L; SODIUM [3]: 146.87 MEQ/L; TOTAL BILIRUBIN [3]: 0.1 mg/dL; TOTAL PROTEIN [3]: 5.87 G/DL; URIC ACID [3]: 1.7 mg/dL; ABSOLUTE BASOPHIL [4]: 0 CELLS/uL; ABSOLUTE EOSINOPHIL [4]: 7.25 CELLS/uL; ABSOLUTE LYMPHOCYTE [4]: 3923.75 CELLS/uL; ABSOLUTE MONOCYTE [4]: 124 CELLS/uL; ABSOLUTE SEGMENTED NEUTROPHIL [4]: 320 CELLS/uL; BASOPHIL [4]: 0%; EOSINOPHIL [4]: 0.25%; ERYTHROCYTE COUNT [4]: 6.03 x10E6/uL; HEMATOCRIT [4]: 36.38%; LEUKOCYTE COUNT [4]: 4.38 x10E3/uL; LYMPHOCYTE [4]: 91%; MEAN CORPUSCULAR HEMOGLOBIN [4]: 22.62 pg; MEAN CORPUSCULAR HEMOGLOBIN CONCENTRATION [4]: 37.5 G/DL; MEAN CORPUSCULAR VOLUME [4]: 60.35 fL; MONOCYTE [4]: 2.25%; NEUTROPHIL [4]: 6.5%; NUCLEATED RED BLOOD CELLS [4]: 0 /100WBC; PLATELET COUNT [4]: 549.5 x10E3/uL; ALANINE AMINOTRANSFERASE [4]: 52.5 u/L; ALBUMIN [4]: 4.57 G/DL; ALKALINE PHOSPHATASE [4]: 204.25 u/L; ASPARTATE AMINOTRANSFERASE [4]: 132 u/L; BLOOD UREA NITROGEN [4]: 15.75 mg/dL; CARBON DIOXIDE [4]: 28 mmol/L; CHLORIDE [4]: 105.75 MEQ/L; CHOLESTEROL [4]: 53.5 mg/dL; CREATINE PHOSPHOKINASE [4]: 1153.75 u/L; CREATININE [4]: 0.25 mg/dL; GLUCOSE [4]: 150.25 mg/dL; LACTATE DEHYDROGENASE [4]: 237.5 u/L; LIPASE [4]: 8.25 u/L; PHOSPHORUS [4]: 13.5 mg/dL; POTASSIUM [4]: 6.62 MEQ/L; SODIUM [4]: 146.95 MEQ/L; TOTAL BILIRUBIN [4]: 0.15 mg/dL; TOTAL PROTEIN [4]: 5.9 G/DL; URIC ACID [4]: 1.88 mg/dL
